# Source: patent publication US20240327364A1, “THERAPEUTIC TARGETING OF GPR68 TO INDUCE FERROPTOSIS” (University Of Maryland, Baltimore, priority 2023, published 2024)
# Like-named read-outs stand apart in the source and are kept apart here.
# What was measured:
# EPHB4 = target: T1, EPHB4 (Homo sapiens, UniProt P54760); assay: KinomeScan; type: binding; details: read-out: % Control
# T1 construct: purchased DiscoveRx (Fremont, CA)
# NIM1 = target: T2, NIM1 (Homo sapiens, UniProt Q8IY84); assay: KinomeScan; type: binding; details: read-out: % Control
# T2 construct: purchased DiscoveRx
# Trypsin activated PARS = assay: GPCR Profiler; type: cell-based
# S1P5 = target: T3, S1P5 (Homo sapiens, UniProt Q9H228); assay: GPCR Profiler; type: cell-based
# T3 construct: host or cells: Chem-1 cells with Gα15
# KIT(D816H) = target: T4, KIT(D816H) (Homo sapiens, UniProt P10721, D816H); assay: KinomeScan; type: binding; details: read-out: % Control
# T4 construct: purchased DiscoveRx
# PKN1 = target: T5, PKN1 (Homo sapiens, UniProt Q16512); assay: KinomeScan; type: binding; details: read-out: % Control
# T5 construct: purchased DiscoveRx (Fremont, CA)
# EGFR(L861Q) = target: T6, EGFR(L861Q) (Homo sapiens, UniProt P00533, L861Q); assay: KinomeScan; type: binding; details: read-out: % Control
# T6 construct: purchased DiscoveRx (Fremont, CA), KinomeScan service
# CIT = CIT (Homo sapiens, UniProt O14578); assay: KinomeScan; type: binding; details: read-out: % Control
# OSR1 = target: T7, OSR1 (Homo sapiens, UniProt O95747); assay: KinomeScan; type: binding; details: read-out: % Control
# T7 construct: purchased DiscoveRx
# SRC = target: T8, SRC (Homo sapiens, UniProt P12931); assay: KinomeScan; type: binding; details: read-out: % Control
# T8 construct: purchased DiscoveRx (Fremont, CA)
# BDKR2 = target: T9, BDKR2 (Homo sapiens, UniProt P30411); assay: GPCR Profiler; type: cell-based
# T9 construct: host or cells: Chem-1 cells with promiscuous Gα15
# PAF = target: T10, PAF (Homo sapiens, UniProt P25105); assay: GPCR Profiler; type: cell-based
# T10 construct: host or cells: Chem-1 cells with Gα15
# MEK3 = target: T11, MEK3 (Homo sapiens, UniProt P46734); assay: KinomeScan; type: binding; details: read-out: % Control
# T11 construct: purchased DiscoveRx (Fremont, CA)
# CAMK2B = target: T12, CAMK2B (Homo sapiens, UniProt Q13554); assay: KinomeScan; type: binding; details: read-out: % Control
# T12 construct: purchased DiscoveRx (KinomeScan service)
# MC2 = target: T13, MC2 (Homo sapiens, UniProt Q01718); assay: GPCR Profiler; type: cell-based
# T13 construct: host or cells: Chem-1 cells with promiscuous Gα15
# BB3 = target: T14, BB3 (Homo sapiens, UniProt P32247); assay: GPCR Profiler; type: cell-based
# T14 construct: host or cells: Chem-1 cells with promiscuous Gα15
# CCR4 = target: T15, CCR4 (Homo sapiens, UniProt P51679); assay: GPCR Profiler; type: cell-based
# T15 construct: host or cells: Chem-1 cells with Gα15
# PHKG2 = target: T16, PHKG2 (Homo sapiens, UniProt P15735); assay: KinomeScan; type: binding; details: read-out: % Control
# T16 construct: purchased DiscoveRx (Fremont, CA)
# p38-alpha = target: T17, p38-alpha (Homo sapiens, UniProt Q16539); assay: KinomeScan; type: binding; details: read-out: % Control
# T17 construct: purchased DiscoveRx
# FLT3(N841I) = target: T18, FLT3(N841I) (Homo sapiens, UniProt P36888, N841I); assay: KinomeScan; type: binding; details: read-out: % Control
# T18 construct: purchased DiscoveRx (Fremont, CA)
# NCI-H82 = assay: Cell Titer-Glo viability, Lung cancer, small cell; type: cell-based
# Description: (§1) OGM2 kills wide variety of cancer cell types. Cell sensitivity can be classified in to Very Sensitive (LC50<2 μM), Sensitive (LC50=2 to 10 μM), Mildly Sensitive (LC50>10 μM), and Refractory (no killing at 10 μM). The listed established cell were incubated with OGM2 at 2 μM or 10 μM for 72 hours under standard cell culture conditions, and relative cell number was assessed using Cell Titer-Glo Luminescent Cell Viability Assay (Promega™) following the manufacturer's instructions. Luminescence was determined using a Cytation 5 reader and Gen5 software package (BioTek™).
# (§2) Cancer cells, which are very sensitive to killing by OGM2 (LCs <2 μM), with reported mRNA expression of GPR68 and the related proton sensing receptor GPR4. LC50's (concentrations causing 50% lethality) were determined using CellTiter-Glo (Promega™, G7570). Cells were plated in 12-well plates (CELLTREAT Scientific Products, 229112) in 1 ml of DMEM with high glucose, GlutaMAX, HEPES, or RPMI 1640 with Penicillin-Streptomycin (ThermoFisher™, 10564029, 11875119 and 15140122) and 10% FBS. Cells were incubated overnight at 37° C. in 5% CO2. Then 1 mL of fresh media was added with DMSO, OGM, or positive control (Erastin; APExBIO Technology, LLC, B1524) and cells incubated for 3 days. On the third day, all media was removed, cells were rinsed with 1×PBS, PBS was removed, and 200 μL of 1× Passive Lysis Buffer (Promega™, E1941) was added to each well. […]. Subsequently, 20 μL of lysate was added to 100 μL CellTiter-Glo™ reagent on a LUMITRAC 200 plate (Greiner™ bio-one, 82050-726). Plates were briefly spun down and read on a GloMax-Multi Detection System (Promega™).
# (§3) The cells listed in the tables above were incubated with OGM2 at 2 μM or 10 μM for 72 hours under standard cell culture conditions, and relative cell number was assessed using Cell Titer-Glo Luminescent Cell Viability Assay (Promega™) following the manufacturer's instructions. Luminescence was determined using a Cytation 5 reader and Gen5 software package (BioTek™). RNA expression of GPR68 and GPR4 in the corresponding cancer cell lines are listed, according to the publicly available The Human Protein Atlas version 22.0 and Ensembl version 103.38 (see proteinatlas.org). The consensus normalized expression value (“nTPM”=normalize transcript per million) was calculated as the maximum nTPM value for each gene in the two data sources.
# THP-1 = assay: Cell Titer-Glo viability, Acute monocytic leukemia; type: cell-based; details: 72 hours
# Description: as §1, §2, §3
# MOLM-14 = assay: Cell Titer-Glo viability, Acute monocytic leukemia; type: cell-based
# Description: as §1, §2, §3
# T13 sequence (Q01718 whole entry): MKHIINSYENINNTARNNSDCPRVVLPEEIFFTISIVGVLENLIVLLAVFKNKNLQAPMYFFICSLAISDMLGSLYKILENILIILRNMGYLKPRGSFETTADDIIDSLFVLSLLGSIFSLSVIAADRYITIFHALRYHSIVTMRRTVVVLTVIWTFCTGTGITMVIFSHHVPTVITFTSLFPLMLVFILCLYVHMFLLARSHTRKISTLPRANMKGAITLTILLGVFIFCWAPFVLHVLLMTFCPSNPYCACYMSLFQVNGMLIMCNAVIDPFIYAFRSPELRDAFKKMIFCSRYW
# T13 sequence (Q8TCY5 whole entry partner): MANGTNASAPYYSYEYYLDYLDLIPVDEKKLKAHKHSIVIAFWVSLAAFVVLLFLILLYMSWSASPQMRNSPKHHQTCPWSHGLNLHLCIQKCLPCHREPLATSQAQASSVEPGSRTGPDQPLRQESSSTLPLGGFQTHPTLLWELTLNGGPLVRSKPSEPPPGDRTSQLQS
# T3 sequence (Q9H228 whole entry, species assumed): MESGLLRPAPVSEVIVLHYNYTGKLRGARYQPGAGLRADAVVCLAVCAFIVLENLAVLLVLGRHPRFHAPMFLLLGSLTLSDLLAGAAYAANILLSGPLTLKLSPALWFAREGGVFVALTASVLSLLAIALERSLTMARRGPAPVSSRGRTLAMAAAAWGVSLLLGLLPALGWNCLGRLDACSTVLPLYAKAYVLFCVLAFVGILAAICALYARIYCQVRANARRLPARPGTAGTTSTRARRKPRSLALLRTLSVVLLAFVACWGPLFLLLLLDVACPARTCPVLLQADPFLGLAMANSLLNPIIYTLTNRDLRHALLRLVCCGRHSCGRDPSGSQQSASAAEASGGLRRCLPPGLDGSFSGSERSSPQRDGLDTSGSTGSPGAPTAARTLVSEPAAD
# T10 sequence (P25105 whole entry): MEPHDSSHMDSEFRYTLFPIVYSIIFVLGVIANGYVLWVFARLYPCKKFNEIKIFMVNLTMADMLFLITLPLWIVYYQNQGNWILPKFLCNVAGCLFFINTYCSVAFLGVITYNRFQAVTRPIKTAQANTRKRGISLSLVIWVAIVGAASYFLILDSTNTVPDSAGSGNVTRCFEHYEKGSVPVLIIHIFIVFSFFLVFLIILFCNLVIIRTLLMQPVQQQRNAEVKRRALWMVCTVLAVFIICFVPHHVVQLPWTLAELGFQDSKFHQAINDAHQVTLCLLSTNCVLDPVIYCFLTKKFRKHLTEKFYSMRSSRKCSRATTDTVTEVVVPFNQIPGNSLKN
# T15 sequence (P51679 whole entry): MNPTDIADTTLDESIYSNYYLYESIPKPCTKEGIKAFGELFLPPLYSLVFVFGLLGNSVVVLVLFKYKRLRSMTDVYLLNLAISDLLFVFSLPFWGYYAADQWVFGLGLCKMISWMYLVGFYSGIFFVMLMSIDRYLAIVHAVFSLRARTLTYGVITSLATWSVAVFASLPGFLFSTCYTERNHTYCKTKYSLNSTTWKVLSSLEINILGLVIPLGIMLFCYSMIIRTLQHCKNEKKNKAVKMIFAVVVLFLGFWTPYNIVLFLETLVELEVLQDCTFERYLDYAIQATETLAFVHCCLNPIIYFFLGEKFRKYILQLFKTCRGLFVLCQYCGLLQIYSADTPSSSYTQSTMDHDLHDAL
# T14 sequence (P32247 whole entry): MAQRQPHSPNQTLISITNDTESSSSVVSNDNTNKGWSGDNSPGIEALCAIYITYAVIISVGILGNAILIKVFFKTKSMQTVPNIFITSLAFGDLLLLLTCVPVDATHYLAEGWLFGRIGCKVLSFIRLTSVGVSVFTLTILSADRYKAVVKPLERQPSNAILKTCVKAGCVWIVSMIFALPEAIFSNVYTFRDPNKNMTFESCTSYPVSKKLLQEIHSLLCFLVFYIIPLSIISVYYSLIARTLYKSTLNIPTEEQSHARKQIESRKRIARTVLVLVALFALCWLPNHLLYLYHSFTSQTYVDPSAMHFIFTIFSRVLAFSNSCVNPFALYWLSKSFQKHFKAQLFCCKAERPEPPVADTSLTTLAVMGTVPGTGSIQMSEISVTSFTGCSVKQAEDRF
# T9 sequence (P30411 whole entry): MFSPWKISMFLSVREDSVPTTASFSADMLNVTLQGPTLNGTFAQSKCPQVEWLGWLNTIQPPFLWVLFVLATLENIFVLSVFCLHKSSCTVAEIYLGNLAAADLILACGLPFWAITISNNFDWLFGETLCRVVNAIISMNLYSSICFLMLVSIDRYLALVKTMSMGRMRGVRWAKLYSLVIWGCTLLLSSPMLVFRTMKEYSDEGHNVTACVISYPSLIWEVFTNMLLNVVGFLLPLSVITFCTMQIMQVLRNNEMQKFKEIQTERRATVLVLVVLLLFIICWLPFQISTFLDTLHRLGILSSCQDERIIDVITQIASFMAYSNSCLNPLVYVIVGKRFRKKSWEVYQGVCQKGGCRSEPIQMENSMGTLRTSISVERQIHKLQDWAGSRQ
# T4 sequence (P10721 26-976 D816H): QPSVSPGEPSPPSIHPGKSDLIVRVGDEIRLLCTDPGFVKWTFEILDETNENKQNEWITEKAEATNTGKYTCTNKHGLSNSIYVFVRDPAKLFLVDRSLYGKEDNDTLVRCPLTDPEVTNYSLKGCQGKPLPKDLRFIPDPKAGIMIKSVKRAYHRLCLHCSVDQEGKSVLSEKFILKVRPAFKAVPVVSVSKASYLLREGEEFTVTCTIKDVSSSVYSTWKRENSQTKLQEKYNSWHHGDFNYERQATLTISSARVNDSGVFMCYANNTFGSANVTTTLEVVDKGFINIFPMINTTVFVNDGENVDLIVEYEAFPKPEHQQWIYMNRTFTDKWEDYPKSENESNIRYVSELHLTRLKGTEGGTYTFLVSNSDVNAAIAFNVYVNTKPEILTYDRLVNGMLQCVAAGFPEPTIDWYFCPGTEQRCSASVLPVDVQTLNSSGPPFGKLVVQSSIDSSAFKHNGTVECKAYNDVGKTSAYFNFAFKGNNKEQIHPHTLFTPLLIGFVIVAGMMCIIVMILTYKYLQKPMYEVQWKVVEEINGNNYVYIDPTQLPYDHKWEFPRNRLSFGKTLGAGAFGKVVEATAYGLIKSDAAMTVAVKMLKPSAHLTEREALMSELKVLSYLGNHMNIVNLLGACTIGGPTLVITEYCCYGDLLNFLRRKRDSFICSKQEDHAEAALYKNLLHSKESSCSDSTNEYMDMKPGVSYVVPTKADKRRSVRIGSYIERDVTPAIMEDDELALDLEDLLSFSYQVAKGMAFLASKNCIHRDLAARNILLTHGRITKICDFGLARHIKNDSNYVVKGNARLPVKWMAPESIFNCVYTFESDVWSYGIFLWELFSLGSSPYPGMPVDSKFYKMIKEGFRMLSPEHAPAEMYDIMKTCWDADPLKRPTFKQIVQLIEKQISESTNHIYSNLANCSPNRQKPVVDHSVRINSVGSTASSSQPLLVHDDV
# T1 sequence (P54760 16-987): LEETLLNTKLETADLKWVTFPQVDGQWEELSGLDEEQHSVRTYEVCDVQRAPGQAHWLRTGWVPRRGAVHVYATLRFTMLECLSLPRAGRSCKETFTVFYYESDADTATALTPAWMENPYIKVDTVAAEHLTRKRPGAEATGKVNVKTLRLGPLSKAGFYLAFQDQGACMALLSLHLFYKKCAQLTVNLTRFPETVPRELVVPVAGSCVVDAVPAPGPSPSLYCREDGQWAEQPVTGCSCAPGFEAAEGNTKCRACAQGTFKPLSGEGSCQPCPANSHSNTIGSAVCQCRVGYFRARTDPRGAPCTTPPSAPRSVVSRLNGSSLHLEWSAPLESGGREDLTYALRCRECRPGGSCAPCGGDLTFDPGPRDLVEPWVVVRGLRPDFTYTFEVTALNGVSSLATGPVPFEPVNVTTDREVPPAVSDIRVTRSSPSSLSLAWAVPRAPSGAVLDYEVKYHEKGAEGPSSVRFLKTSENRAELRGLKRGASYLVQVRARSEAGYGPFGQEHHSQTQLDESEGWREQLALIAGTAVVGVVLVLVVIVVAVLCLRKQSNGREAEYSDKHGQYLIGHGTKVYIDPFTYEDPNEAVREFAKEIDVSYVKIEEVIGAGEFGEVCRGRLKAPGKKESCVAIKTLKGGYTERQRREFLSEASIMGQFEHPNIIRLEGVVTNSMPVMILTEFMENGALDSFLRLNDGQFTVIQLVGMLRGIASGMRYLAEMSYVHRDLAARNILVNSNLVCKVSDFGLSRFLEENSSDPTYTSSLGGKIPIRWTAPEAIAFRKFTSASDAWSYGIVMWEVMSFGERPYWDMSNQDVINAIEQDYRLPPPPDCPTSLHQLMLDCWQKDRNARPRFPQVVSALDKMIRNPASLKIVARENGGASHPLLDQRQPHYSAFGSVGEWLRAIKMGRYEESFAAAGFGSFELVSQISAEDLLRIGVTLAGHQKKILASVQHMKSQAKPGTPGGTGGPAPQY
# T12 sequence (Q13554 whole entry): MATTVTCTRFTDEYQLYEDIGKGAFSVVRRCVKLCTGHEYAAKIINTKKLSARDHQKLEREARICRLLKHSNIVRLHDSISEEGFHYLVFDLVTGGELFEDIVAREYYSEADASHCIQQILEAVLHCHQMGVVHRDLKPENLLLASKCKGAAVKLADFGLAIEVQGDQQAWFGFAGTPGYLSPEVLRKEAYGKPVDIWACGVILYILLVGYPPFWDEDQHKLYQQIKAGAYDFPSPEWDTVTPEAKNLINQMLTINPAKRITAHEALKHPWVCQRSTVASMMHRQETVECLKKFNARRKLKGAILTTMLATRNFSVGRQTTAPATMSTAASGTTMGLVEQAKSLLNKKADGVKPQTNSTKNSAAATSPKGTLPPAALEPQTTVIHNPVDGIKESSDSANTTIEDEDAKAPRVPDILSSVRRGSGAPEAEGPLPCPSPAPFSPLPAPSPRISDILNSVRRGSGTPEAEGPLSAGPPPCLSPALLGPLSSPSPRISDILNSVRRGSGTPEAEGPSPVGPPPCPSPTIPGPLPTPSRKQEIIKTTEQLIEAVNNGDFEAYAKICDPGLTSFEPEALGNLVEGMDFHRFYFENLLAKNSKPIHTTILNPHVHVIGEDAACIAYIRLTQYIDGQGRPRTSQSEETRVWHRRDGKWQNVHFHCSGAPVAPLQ
smiles,measurement,setting,value
"CCc1ccc2c(c1)C1(NN=C(c3cccc4ccccc34)S1)C(=O)N2 (stereo not drawn) [OGM1, 5-ethyl-5′-naphthalen-1-ylspiro[1H-indole-3,2′-3H-1,3,4-thiadiazole]-2-one]",remaining binding at 10 µM,EPHB4,100%
same,remaining binding at 10 µM,NIM1,96%
same,Antagonism,Trypsin activated PARS; 10 uM,18.2
same,Agonism,Trypsin activated PARS; 12.5 uM,0
same,Antagonism,S1P5; 10 uM,0.9
same,Agonism,S1P5; 12.5 uM,1.8
same,remaining binding at 10 µM,KIT(D816H),97%
same,remaining binding at 10 µM,PKN1,100%
same,remaining binding at 10 µM,EGFR(L861Q),100%
same,remaining binding at 10 µM,CIT,94%
same,remaining binding at 10 µM,OSR1,92%
same,remaining binding at 10 µM,SRC,95%
same,Antagonism,BDKR2; 10 uM,3.4
same,Agonism,BDKR2; 12.5 uM,−2.4
same,Antagonism,PAF; 10 uM,6.6
same,Agonism,PAF; 12.5 uM,0.4
same,remaining binding at 10 µM,MEK3,100%
same,remaining binding at 10 µM,CAMK2B,60%
same,Antagonism,MC2; 10 uM,3.9
same,Agonism,MC2; 12.5 uM,0.1
same,Antagonism,BB3; 10 uM,−0.7
same,Agonism,BB3; 12.5 uM,1.3
same,Antagonism,CCR4; 10 uM,−4.1
same,Agonism,CCR4; 12.5 uM,−0.7
same,remaining binding at 10 µM,PHKG2,71%
same,remaining binding at 10 µM,p38-alpha,54%
same,remaining binding at 10 µM,FLT3(N841I),91%
CCc1ccc2c(c1)C1(NN=C(c3ccccc3)S1)C(=O)N2 (stereo not drawn) [OGM2],Class,NCI-H82,Mildly
same,% Survival 2 μM OGM,NCI-H82; 72 hours,102.6%
same,% Survival 10 μM OGM,NCI-H82; 72 hours,59.9%
same,CC50,"NCI-H82; Homo sapiens, NCI-H82, 72 hours, read-out: LC50 (the source's name)",> 10 µM
same,Class,NCI-H82; Table 13,Low
same,% Survival 2 μM OGM,THP-1,33.0%
same,% Survival 10 μM OGM,THP-1,9.4%
same,CC50,"THP-1; Homo sapiens, THP-1, read-out: LC50 (the source's name)",< 2 µM
same,Class,MOLM-14,Sensitive (Sensitive (LC50=2 to 10 μM))
same,% Survival 2 μM OGM,MOLM-14; 72 hours,65.3%
same,% Survival 10 μM OGM,MOLM-14; 72 hours,15.3%
same,CC50,"MOLM-14; Homo sapiens, MOLM-14, 72 hours, read-out: LC50 (the source's name)",2 to 10 µM
